Where two headings read alike, the source gives them in different places.
What was measured:
[1] = cited from earlier work
From the text: Dietary calcium supplementation offers a direct solution to calcium deficiency. However, traditional calcium supplements (e.g., calcium carbonate) suffer from limitations such as low bioavailability and gastrointestinal irritation, which lead to reduced efficacy. […] This enhanced performance is primarily attributed to the peptide ... || This study’s results align with earlier findings regarding peptide–calcium complexes.

[2] = test system: Caco-2 monolayer; conditions: cited from earlier work; for increase of intestinal calcium transport compared with the control group: within 30 min
Experimental: With 1~2 mg/mL of DK, the tran ... || This study’s results align with earlier findings regarding peptide–calcium complexes.

[3] = test system: Caco-2 monolayer; test: Transepithelial permeability of sodium fluorescein (monolayer integrity); format: in vitro ADME, human; conditions: Transwell, after 21 days of differentiation, mean ± SD
Experimental: (§1) Caco-2 cells (passages 15–30) were seeded at 1 × 10^5 cells/mL in Transwell chambers (12 mm, 0.4 μm pores, polycarbonate membrane, 1.12 cm^2 area) to establish a Caco-2 monolayer model. The culture medium (0.5 mL in the apical and 1.5 mL in the basolateral) was refreshed every 48 h (first week), then daily (next two weeks). The integrity of the Caco-2 cell monolayer model was verified by the following multiple indicators: Transepithelial electrical resistance (TEER) was monitored every 48 h using an epithelial voltohmmeter (RE1600, Beijing Jingong Hongtai Technology Co., Ltd., Beijing, China). Alkaline phosphatase (ALP) activity was measured on days 8, 12, 14, 16, and 21 after inoculation utilizing an ALP assay kit, following the manufacturer’s protocol. Transepithelial permeability was evaluated using sodium fluorescein following the method of Qiu et al..

[4] = test system: Caco-2 monolayer; test: Effect of dietary components (vitamin D3, phytic acid) on calcium transport in Caco-2 monolayer; format: cell-based, human; conditions: 120 min, control without dietary component, n = 3
Experimental: Vitamin D3 (0.5 μmol/L, dissolved in 0.1% ethanol) or phytic acid (1.8 mM, with a of phytic acid/calcium molar ratio of 0.24) was added to the AP side to evaluate the effect of dietary components on calcium transport. The group without an added dietary component served as the control group. After 120 min incubation, the BL side solution was collected for calcium transport analysis.

[5] = test system: Caco-2 monolayer; test: Fluo-4 AM fluorescence imaging of intracellular calcium influx; format: cell-based, human; conditions: samples containing 150 μg/mL calcium, 24 h, Fluo-4 AM 4 μmol/L, confocal microscope
Experimental: Fluorescence imaging based on intracellular calcium influx was conducted to assess the calcium transport-promoting effect in the Caco-2 monolayer following the method of Men et al.. Log-phase cells were seeded at 1.5 × 10^5 cells/well in 35 mm laser confocal dishes and gently agitated to ensure uniform distribution. Cultures were maintained at 37 °C in 5% CO2 with daily medium replacement until confluent monolayers formed. Subsequently, CaCl2, DK + CaCl2, and DK–Ca solutions (each containing 150 μg/mL calcium) were added separately. The group without an added sample served as the control group. Following 24 h of incubation, the cells were washed thrice with prewarmed calcium-/magnesium-free HBSS buffer (pH 7.2). Under light-protected conditions, 200 µL of Fluo-4 AM (4 μmol/L) was applied to cover the cells. Following 30 min incubation at 37 °C and subsequent washes, cells were dark-adapted for 10 min at room temperature for de-esterification. Imaging was conducted using a confocal microscope (excitation at 496 nm, Zeiss LSM980 Airyscan2, Carl Zeiss, Germany ), followed by quantification of the fluorescence intensity with ImageJ 1.54 g software.

[6] = test system: Caco-2 monolayer; test: Calcium transport assay in Caco-2 monolayer model; format: cell-based, human; conditions: 7.5 mM CaCl2 on AP side, AP to BL, HBSS pH 7.4, 37 °C, 120 min, calcium colorimetric kit 575 nm; mean ± SD, n = 3
Experimental: as §1
Caco-2 monolayer models with a TEER value exceeding 500 Ω·cm^2 are permitted for calcium transport studies. Following three sequential washes with Hank’s balanced salt solution (HBSS; calcium/magnesium-free, pH 7.4), monolayers were equilibrated at 37 °C for 30 min. Afterward, the Transwell chambers were moved to fresh receiver plates for transport assays.
Concentration-dependent CaCl2 transport assay: 0.5 mL of CaCl2 solution (1.5~10 mM) was added to the apical (AP) side. The basolateral (BL) side contained 1.5 mL prewarmed HBSS. After 120 min incubation at 37 °C and 5% CO2, the BL side solution was collected for calcium transport analysis.
Time-dependent CaCl2 transport assay: The AP side contained 0.5 mL of 7.5 mM CaCl2 solution, and the BL side 1.5 mL prewarmed HBSS. At designated intervals (30~180 min), 1 mL BL side solution was collected and replaced with equal volumes of fresh HBSS buffer to maintain consistency.
Different concentrations of DK solution (0.5~2 mg/mL, 0.5 mL) containing 7.5 mM CaCl2, or 0.5 mL of DK–Ca solution (0.5~2 mg/mL), were added to the AP side. The BL side contained 1.5 mL prewarmed HBSS. The control group contained 7.5 mM CaCl2 alone on the AP side. At designated intervals (30~180 min), 1 mL BL side solution was collected and replaced with equal volumes of fresh HBSS buffer to maintain consistency.
Calcium concentration in the collected sample was measured using a calcium colorimetric assay kit at 575 nm. Transported calcium was calculated as follows:(1) Tn=1.5Cn+1×∑k=1n-1Ck […]

[7] = test system: Caco-2 monolayers; conditions: 120 min; cited from earlier work
Experimental: To assess component changes in DK–Ca after 120 min of calcium-promoting transport, solutions collected from the AP and BL sides of the monolayer were subjected to RP-HPLC analysis.

[8] = test system: Caco-2 cells; test: MTT cell viability assay; format: cell-based, human; conditions: 24 h, concentration range 0~5 mg/mL, n = 3
Experimental: Caco-2 cells were maintained in complete DMEM medium containing 20% (v/v) FBS, 1% non-essential amino acids, and penicillin-streptomycin (100 U/mL−100 μg/mL) at 37 °C under 5% CO2 atmosphere, with medium replacement every 48 h. At 80–90% confluency, cells were seeded into 96-well plates (1 × 10^4 cells/well). After 24 h of incubation, the original medium was exchanged for a new solution containing CaCl2 (0~5 mg/mL), DK (0~5 mg/mL), DK + CaCl2 (1:1 w/w, 0~5 mg/mL), DK–Ca (0~5 mg/mL), 2-APB (0~75 μmol/L), cytochalasin D (0~2 μg/mL), and mβCD (0~5 mmol/L). After 24 h of incubation, the cell viability was assessed by MTT [21].

YGTGL
calcium-binding capacity [1]: 76.03 mg/g

YQEPVIAPKL [tilapia collagen-derived peptide]
increase of intestinal calcium transport compared with the control group [2]: 130%

O=C([O-])c1ccccc1-c1c2ccc(=O)cc-2oc2cc([O-])ccc12.[Na+].[Na+] [sodium fluorescein]
apparent permeability coefficient (Papp) ([3]; 30 min): 7.17±0.22 ×10^-7 cm/s
apparent permeability coefficient (Papp) ([3]; 60 min): 7.47±0.25 ×10^-7 cm/s
apparent permeability coefficient (Papp) ([3]; 90 min): 7.56±0.64 ×10^-7 cm/s
apparent permeability coefficient (Papp) ([3]; 120 min): 8.35 ± 0.15 ×10-7 cm/s

FDHIVY [tilapia collagen-derived peptide]
increase of intestinal calcium transport compared with the control group [2]: 202%

DHTKE [DHTKE–calcium complex, egg white hydrolysate-derived DHTKE–calcium complex]
increase of transported calcium compared to the calcium-free control group [2]: seven-fold

[Ca+2].[Cl-].[Cl-] [CaCl2]
reduction of transported calcium by phytic acid compared to the control group ([4]; phytic acid 1.8 mM (phytic acid/calcium molar ratio 0.24) on AP side): 49.11%
increase of transported calcium by vitamin D3 compared to the control group ([4]; vitamin D3 0.5 μmol/L on AP side): 22.68%
decrease of calcium absorption by phytic acid [2]: 79.86%
fluorescence intensity (intracellular calcium influx) compared to the control group [5]: significantly increased
transported calcium [6]: 27.55 ± 1.20 μg/well

LVFL
calcium-binding capacity [1]: 79.50 mg/g

AHVGMSGEEPE-Ca [AHV-Ca, rice peptide–calcium complex]
transported calcium ([2]; Caco-2 monolayers): 61.75 ± 13.23 μg/well
transported calcium, fold versus CaCl2 ([2]; Caco-2 monolayers): 2.16 fold

GPAGPHGPVG [tilapia collagen-derived peptide]
increase of intestinal calcium transport compared with the control group [2]: 89%

VLPVPQK
calcium-binding capacity [1]: 129.46 mg/g

YQEPVPVRGPFPIIV
cleavage after culture in Caco-2 monolayers [7]: cleaved into […] and […]

AHVGMSGEEPE [rice protein-derived peptide]
calcium-binding capacity [1]: 55.69 mg/g

C=C1[C@@H](C)[C@H]2[C@H](Cc3ccccc3)NC(=O)[C@]23[C@H](OC(C)=O)/C=C/[C@@](C)(O)C(=O)[C@@H](C)C/C=C/[C@H]3[C@@H]1O [cytochalasin D, Cytochalasin D]
cytotoxicity to Caco-2 cells [8]: no cytotoxicity

— publication PMC12428237, “Study on the Calcium Transport-Promoting Property and Mechanism of the Peptide–Calcium Complex DEEENDQVK–Ca Based on a Caco-2 Monolayer Model” (Foods, 2025)
